Measured values as given in ChEMBL document CHEMBL1133712, “Monocyclic L-nucleosides with type 1 cytokine-inducing activity” (2000).

Tests used:
Format in all cases: functional, Homo sapiens
Design in all cases: concentration or dose not given beside the values
[1] = Compounds was tested for the effect of L-nucleosides of ribavirin on SEB (staphylococcal enterotoxin B)-stimulated T-cell expression of the type 1 cytokine TNF-alpha
[2] = Compounds was tested for the effect of L-nucleosides of ribavirin on SEB (staphylococcal enterotoxin B)-stimulated T-cell expression of the type 1 cytokine IL-2.
[3] = Compounds was tested for the effect of L-nucleosides of ribavirin on SEB (staphylococcal enterotoxin B)-stimulated T-cell expression of the type 1 cytokine IFN-gamma

SMILES | Control [1] | Control [2] | Control [3]
NC(=O)c1ncn([C@@H]2C[C@@H](O)[C@H](CO)O2)n1 | 119% | 108% | 110%
NC(=O)c1ncn([C@H]2O[C@@H](CO)[C@H](O)[C@@H]2O)n1 | 144% | 131% | 122%
Cl.N=C(N)c1ncn([C@H]2O[C@@H](CO)[C@H](O)[C@@H]2O)n1 | 120% | 133% | 128%
NC(=O)c1ncn([C@H]2O[C@@H](CO)C[C@@H]2O)n1 | 109% | 115% | 114%
NC(=O)c1ncn([C@H]2O[C@@H](CO)[C@@H](O)[C@@H]2O)n1 | 132% | 100% | 119%
NC(=O)c1ncn([C@@H]2O[C@H](CO)[C@@H](O)[C@H]2O)n1 [RIBAVIRIN] | 124% | 143% | 131%
